Biological target: T1, N-type Ca2+ channels in IMR-32 cells (Homo sapiens, UniProt Q00975)
T1 construct: host or cells: IMR-32 cells, differentiated with dibutyryl cAMP and bromodeoxyuridine
Assay: Inhibition of N-type calcium flux in IMR-32 cells (Indo-1 fluorescence, nitrendipine present)
Format: cell-based
Settings: for IC50: IMR-32 cells, 5 μM nitrendipine, K+ depolarization
Summary of the method: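 With L-type flux blocked by 5 μM nitrendipine, N-type Ca2+ entry was read as the Indo-1 emission ratio (400/490 nm, excitation 350 nm) at 30° C after KCl depolarization.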

T1 sequence (Q00975 whole entry): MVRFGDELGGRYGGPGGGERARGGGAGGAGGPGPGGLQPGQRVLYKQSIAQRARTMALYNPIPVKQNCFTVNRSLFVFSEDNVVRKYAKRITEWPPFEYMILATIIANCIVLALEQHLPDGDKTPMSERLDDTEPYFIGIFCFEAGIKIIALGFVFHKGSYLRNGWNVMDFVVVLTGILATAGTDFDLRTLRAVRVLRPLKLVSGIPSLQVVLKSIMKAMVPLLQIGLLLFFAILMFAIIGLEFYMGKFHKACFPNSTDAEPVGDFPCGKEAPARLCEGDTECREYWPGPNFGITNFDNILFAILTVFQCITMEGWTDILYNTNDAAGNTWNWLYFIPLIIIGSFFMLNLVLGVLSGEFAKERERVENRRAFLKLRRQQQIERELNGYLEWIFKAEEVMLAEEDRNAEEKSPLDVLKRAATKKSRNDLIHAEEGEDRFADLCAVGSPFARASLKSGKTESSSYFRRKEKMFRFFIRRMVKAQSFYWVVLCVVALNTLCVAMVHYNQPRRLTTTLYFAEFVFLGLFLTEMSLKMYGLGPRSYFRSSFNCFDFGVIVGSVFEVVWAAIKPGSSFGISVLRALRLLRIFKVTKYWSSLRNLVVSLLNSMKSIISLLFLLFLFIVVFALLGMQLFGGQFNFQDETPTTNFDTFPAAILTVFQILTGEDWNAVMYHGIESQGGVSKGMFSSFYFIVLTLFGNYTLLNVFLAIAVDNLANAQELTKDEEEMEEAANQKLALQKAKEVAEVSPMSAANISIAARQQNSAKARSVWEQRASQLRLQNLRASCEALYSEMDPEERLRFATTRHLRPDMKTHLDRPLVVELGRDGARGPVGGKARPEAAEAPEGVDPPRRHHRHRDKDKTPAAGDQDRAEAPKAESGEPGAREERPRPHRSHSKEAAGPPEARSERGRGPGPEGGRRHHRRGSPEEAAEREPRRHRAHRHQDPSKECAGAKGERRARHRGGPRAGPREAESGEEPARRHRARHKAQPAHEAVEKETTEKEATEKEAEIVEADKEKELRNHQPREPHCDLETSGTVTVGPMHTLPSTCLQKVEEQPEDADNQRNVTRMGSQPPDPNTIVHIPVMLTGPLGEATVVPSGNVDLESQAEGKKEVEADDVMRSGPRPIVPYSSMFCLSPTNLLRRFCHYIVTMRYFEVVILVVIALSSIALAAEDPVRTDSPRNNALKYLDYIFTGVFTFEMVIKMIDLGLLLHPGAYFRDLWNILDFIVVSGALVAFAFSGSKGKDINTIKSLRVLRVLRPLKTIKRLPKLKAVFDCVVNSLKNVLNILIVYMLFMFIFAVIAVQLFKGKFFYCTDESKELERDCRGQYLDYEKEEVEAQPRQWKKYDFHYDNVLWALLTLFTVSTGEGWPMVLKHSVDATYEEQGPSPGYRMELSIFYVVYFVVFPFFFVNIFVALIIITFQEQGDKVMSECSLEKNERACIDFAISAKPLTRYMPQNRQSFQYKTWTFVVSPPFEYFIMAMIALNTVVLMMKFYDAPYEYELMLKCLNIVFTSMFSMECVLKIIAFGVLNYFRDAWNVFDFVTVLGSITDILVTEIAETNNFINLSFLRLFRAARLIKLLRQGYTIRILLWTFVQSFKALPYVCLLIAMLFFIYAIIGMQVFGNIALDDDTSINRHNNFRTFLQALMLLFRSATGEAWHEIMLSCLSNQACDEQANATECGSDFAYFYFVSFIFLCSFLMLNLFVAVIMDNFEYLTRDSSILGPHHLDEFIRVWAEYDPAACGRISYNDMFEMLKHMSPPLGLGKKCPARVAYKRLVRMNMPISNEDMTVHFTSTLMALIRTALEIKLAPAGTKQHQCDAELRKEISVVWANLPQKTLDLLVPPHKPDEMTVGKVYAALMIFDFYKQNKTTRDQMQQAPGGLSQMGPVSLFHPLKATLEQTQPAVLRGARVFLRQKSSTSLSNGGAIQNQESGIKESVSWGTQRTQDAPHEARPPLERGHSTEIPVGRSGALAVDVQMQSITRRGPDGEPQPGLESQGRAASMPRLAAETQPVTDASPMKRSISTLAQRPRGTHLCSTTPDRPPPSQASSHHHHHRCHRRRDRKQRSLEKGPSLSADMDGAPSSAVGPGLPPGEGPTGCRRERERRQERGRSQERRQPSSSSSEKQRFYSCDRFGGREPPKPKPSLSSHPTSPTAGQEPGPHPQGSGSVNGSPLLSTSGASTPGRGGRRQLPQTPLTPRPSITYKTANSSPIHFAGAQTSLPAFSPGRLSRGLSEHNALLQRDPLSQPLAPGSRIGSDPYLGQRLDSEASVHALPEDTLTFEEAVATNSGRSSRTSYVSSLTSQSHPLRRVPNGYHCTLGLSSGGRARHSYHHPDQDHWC
T1 sequence (P54289 25-956 partner limits assumed): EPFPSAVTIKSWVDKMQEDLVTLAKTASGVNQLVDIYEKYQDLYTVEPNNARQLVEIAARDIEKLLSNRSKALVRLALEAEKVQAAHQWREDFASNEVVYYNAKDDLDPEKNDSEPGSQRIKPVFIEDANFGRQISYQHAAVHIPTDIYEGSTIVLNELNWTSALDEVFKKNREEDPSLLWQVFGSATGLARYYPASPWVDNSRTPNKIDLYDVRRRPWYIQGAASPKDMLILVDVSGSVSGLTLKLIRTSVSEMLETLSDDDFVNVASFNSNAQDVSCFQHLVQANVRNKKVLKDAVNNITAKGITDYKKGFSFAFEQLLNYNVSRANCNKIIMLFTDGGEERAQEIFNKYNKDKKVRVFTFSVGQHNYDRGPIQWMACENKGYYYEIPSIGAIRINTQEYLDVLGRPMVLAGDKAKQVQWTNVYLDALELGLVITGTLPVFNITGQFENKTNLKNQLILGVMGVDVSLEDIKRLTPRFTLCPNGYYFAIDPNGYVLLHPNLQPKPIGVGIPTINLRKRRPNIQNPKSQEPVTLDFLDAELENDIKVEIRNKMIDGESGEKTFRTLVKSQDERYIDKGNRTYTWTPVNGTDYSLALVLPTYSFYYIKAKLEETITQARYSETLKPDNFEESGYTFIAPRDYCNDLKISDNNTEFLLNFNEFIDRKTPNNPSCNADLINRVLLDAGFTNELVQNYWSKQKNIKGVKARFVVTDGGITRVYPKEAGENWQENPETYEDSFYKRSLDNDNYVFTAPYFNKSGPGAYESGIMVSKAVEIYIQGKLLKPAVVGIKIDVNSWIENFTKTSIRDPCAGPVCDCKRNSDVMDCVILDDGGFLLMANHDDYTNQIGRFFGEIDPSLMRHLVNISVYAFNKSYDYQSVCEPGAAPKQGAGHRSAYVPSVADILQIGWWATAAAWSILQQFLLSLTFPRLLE
T1 sequence (P54289 957-1103 partner limits assumed): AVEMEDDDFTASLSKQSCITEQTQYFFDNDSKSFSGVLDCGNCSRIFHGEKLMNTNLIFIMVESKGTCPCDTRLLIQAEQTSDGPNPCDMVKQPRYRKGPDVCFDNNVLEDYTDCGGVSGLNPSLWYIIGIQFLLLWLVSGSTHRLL
T1 sequence (P54284 whole entry partner): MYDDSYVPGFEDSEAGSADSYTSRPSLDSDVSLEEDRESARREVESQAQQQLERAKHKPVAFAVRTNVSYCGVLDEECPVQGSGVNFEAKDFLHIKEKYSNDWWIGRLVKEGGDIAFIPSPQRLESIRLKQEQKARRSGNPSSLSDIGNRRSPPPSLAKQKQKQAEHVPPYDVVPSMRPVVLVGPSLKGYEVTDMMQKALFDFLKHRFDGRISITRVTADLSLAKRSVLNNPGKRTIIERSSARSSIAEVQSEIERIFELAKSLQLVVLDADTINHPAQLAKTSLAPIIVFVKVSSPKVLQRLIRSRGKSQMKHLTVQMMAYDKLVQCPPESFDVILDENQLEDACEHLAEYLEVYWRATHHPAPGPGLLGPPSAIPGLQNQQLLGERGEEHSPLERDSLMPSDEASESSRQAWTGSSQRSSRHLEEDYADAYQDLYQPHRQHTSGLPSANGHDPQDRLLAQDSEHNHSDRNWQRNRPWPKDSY

Row | Inhibition of Calcium Flux in IMR-32 Cells % Inhibition at 1 μM [%] | Inhibition of Calcium Flux in IMR-32 Cells % Inhibition at 10 μM [%] | IC50 [µM] | SMILES | also measured
1 | 55 | – | – | COc1ccccc1NC(=O)N[C@@H](CC(C)C)C(=O)N[C@@H](Cc1ccc(OCc2ccccc2)cc1)C(=O)OC(C)(C)C (relative stereo) [Example 71, [S-(R*,R*)]-3-(4-Benzyloxy-phenyl)-2-{2-[3-(2-methoxy-phenyl)-ureido]-4-methyl-pentanoylamino}-propionic acid tert-butyl ester] | –
2 | 29 | 68 | – | CC(C)C[C@H](NC(=S)Nc1ccc(Br)cc1)C(=O)N[C@@H](Cc1ccc(OCc2ccccc2)cc1)C(=O)OC(C)(C)C (relative stereo) [Example 45, [S-(R*,R*)]-3-(4-Benzyloxy-phenyl)-2-{2-[3-(4-bromophenyl)-thioureido]-4-methyl-pentanoyl-amino}-propionic acid, tert-butyl ester] | –
3 | 31 | – | – | Cc1cc(C)cc(NC(=O)N[C@@H](CC(C)C)C(=O)N[C@@H](Cc2ccc(OCc3ccccc3)cc2)C(=O)OC(C)(C)C)c1 (relative stereo) [Example 72, [S-(R*,R*)]-3-(4-Benzyloxy-phenyl)-2-{2-[3-(3,5-dimethyl-phenyl)-ureido]-4-methyl-pentanoylamino}-propionic acid tert-butyl ester] | –
4 | – | 78 | – | CC(C)C[C@H](NC(=O)C(F)(F)F)C(=O)N[C@@H](Cc1ccc(OCc2ccccc2)cc1)C(=O)OC(C)(C)C (relative stereo) [Example 128, [S-(R*,R*)]-3-(4-Benzyloxy-phenyl)-2-[4-methyl-2-(2,2,2-trifluoro-acetylamino)pentanoylamino]-propionic acid tert-butyl ester] | –

Further lines, the compound ahead of its results:

Row | SMILES | Inhibition of Calcium Flux in IMR-32 Cells % Inhibition at 1 μM [%] | Inhibition of Calcium Flux in IMR-32 Cells % Inhibition at 10 μM [%] | IC50 [µM] | also measured
5 | CC(C)C[C@H](NC(=O)NC1CCCCC1)C(=O)N[C@@H](Cc1ccc(OCc2ccccc2)cc1)C(=O)OC(C)(C)C (relative stereo) [Example 56, [S-(R*,R*)]-3-(4-Benzyloxy-phenyl)-2-[2-(3-cyclohexyl-ureido)-4-methyl-pentanoylamino]propionic acid tert-butyl ester] | 24 | 56 | – | –
6 | O=C(NCCN1CCCCC1)[C@H](Cc1ccc(OCc2ccccc2)cc1)NC(=O)[C@H](Cc1ccc(Br)cc1)NC(=O)N1CCCCCC1 [Example 157, [S-(R*,R*)]-Azepane-1-carboxylic acid [1-[2-(4-benzyloxy-phenyl)-1-(2-piperidin-1-ylethylcarbamoyl)-ethylcarbamoyl]-2-(4-bromo-phenyl)-ethyl]-amide] | – | – | 2.3 | –
7 | Cc1onc(-c2ccccc2)c1C(=O)N[C@@H](CC(C)C)C(=O)N[C@@H](Cc1ccc(OCc2ccccc2)cc1)C(=O)OC(C)(C)C (relative stereo) [Example 131, [(S-(R*,R*)]-3-(4-Benzyloxy-phenyl)-2-{4-methyl-2-[(5-methyl-3-phenyl-isoxazole-4-carbonyl)amino]-pentanoylamino}-propionic acid tert-butyl ester] | – | 44 | – | –
8 | CC(=O)N1CCN(C(=O)[C@H](Cc2ccc(OCc3ccccc3)cc2)NC(=O)[C@H](CC(C)C)NC(=O)N2CCCCCC2)CC1 [Example 204, [S-(R*,R*)]-Azepane-1-carboxylic acid {1-[2-(4-acetyl-piperazin-1-yl)-1-(4-benzyloxy-benzyl)-2-oxo-ethylcarbamoyl]-3-methyl-butyl}-amide] | – | – | 5.5 | inhibition at 1 µM (IMR-32): 13%; inhibition at 10 µM (IMR-32): 66%
9 | O=C(NCCN1CCCCC1)[C@H](Cc1ccc(OCc2ccccc2)cc1)NC(=O)[C@@H]1CCCN1C(=O)N1CCCCCC1 [Example 152, [S-(R*,R*)]-1-(Azepane-1-carbonyl)-pyrrolidine-2-carboxylic acid [2-(4-benzyloxy-phenyl)-1-(2-piperidin-1-yl-ethylcarbamoyl)-ethyl]-amide] | – | – | 1.9 | –
